Results reported in PMC7044277 (Nature Communications, 2020).
Several values for one entry are separate records, joined by “and”; a condition that tells them apart may be missing. Equal values may be shown once.

Experiments:
Type in all cases: cell-based
Parameters in all cases: GPCRome screening signal at PTGIR / GPCRome screening signal at PTH1R / GPCRome screening signal at PTH2R / GPCRome screening signal at QRFP / GPCRome screening signal at RXFP2 / GPCRome screening signal at RXFP3 / GPCRome screening signal at RXFP4 / GPCRome screening signal at S1PR2 / GPCRome screening signal at S1PR3 / GPCRome screening signal at S1PR4 / GPCRome screening signal at S1PR5 / GPCRome screening signal at SCTR / GPCRome screening signal at SSTR2 / GPCRome screening signal at SSSTR / GPCRome screening signal at SSTR4 / GPCRome screening signal at SSTR5 / GPCRome screening signal at SUCNR1 / GPCRome screening signal at TA1 / GPCRome screening signal at TAAR2 / GPCRome screening signal at TAAR5 / GPCRome screening signal at TAAR6 / GPCRome screening signal at TAAR8 / GPCRome screening signal at TACR1 / GPCRome screening signal at TACR2 / GPCRome screening signal at TACR3 / GPCRome screening signal at TBXA2R / GPCRome screening signal at TSHR / GPCRome screening signal at UTS2R / GPCRome screening signal at VIPR2 / GPCRome screening signal at GPR68 no V2 Tail / GPCRome screening signal at GRM2 / GPCRome screening signal at GRM3: reference not given here
320 non-olfactory GPCRs [1] = target: T1, 320 non-olfactory GPCRs (Homo sapiens, UniProt O14804); conditions: receptor TAAR5
T1 construct: expressed in transfected cells; host or cells: HTLA cells
T1 sequence (O14804 whole entry): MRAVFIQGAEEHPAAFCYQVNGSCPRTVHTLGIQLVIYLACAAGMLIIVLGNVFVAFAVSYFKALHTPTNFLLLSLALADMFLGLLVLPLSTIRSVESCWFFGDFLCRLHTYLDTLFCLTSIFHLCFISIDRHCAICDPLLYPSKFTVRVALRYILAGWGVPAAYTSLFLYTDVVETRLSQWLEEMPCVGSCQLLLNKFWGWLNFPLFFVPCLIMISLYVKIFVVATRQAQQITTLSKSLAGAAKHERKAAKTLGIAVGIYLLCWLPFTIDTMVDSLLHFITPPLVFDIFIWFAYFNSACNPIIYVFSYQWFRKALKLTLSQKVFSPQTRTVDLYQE

320 non-olfactory GPCRs [2] = target: 320 non-olfactory GPCRs (Homo sapiens, UniProt P25103); conditions: receptor TACR1
Sequence of 320 non-olfactory GPCRs (Homo sapiens, UniProt P25103) (P25103 whole entry): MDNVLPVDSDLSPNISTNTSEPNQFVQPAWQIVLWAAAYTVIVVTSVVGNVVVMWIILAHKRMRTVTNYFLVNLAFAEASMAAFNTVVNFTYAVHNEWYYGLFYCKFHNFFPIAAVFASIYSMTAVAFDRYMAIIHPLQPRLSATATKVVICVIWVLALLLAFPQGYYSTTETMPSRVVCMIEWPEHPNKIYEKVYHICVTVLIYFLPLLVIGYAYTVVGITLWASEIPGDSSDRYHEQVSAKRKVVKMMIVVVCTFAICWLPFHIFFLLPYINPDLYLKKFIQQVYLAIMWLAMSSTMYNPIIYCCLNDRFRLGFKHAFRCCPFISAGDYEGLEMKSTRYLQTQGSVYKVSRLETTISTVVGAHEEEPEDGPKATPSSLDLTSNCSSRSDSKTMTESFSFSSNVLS

320 non-olfactory GPCRs [3] = target: T2, 320 non-olfactory GPCRs (Homo sapiens, UniProt Q96RI9); conditions: receptor TAAR9
T2 construct: expressed in transfected cells; host or cells: HTLA cells
T2 sequence (Q96RI9 whole entry): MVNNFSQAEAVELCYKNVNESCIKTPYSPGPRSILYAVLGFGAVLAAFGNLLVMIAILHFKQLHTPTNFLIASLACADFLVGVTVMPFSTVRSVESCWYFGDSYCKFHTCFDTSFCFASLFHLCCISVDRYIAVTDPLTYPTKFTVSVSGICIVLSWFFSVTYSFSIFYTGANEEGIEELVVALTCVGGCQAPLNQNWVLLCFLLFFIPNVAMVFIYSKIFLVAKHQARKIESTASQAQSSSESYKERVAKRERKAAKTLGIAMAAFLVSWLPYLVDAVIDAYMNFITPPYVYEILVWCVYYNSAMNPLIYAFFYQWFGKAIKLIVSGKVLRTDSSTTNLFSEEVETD

320 non-olfactory GPCRs [4] = target: T3, 320 non-olfactory GPCRs (Homo sapiens, UniProt Q9HBX9); conditions: receptor RXFP1
T3 construct: expressed in transfected cells; host or cells: HTLA cells
T3 sequence (Q9HBX9 whole entry): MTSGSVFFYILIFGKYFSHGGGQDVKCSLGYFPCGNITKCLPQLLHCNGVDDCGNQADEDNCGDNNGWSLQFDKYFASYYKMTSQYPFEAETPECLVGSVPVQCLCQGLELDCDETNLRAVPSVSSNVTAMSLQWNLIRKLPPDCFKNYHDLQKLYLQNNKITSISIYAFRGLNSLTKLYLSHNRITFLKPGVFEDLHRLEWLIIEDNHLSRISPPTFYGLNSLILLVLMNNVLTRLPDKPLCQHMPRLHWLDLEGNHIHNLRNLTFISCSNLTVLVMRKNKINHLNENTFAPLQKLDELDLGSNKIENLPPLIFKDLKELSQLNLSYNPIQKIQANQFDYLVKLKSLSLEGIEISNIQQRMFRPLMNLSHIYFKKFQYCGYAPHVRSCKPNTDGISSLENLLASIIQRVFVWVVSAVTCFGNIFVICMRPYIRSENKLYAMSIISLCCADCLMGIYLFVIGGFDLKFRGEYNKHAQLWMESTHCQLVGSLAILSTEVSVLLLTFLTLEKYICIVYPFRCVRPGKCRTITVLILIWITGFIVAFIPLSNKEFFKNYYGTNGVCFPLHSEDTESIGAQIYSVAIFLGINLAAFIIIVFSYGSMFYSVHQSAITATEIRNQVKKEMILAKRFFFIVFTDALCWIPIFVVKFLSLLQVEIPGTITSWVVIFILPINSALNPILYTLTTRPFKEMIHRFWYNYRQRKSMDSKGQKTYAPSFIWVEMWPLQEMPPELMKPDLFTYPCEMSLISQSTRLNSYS

[5] = Fig_5f, single replicate values
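Throughout, for GPCRome agonism screen response: fold over basal response of each receptor without drug.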

SMILES | GPCRome screening signal at TAAR5 (320 non-olfactory GPCRs [1]; [5]) | GPCRome screening signal at TACR1 (320 non-olfactory GPCRs [2]; [5]) | GPCRome screening signal at TAAR9 (320 non-olfactory GPCRs [3]; [5]) | GPCRome screening signal at RXFP1 (320 non-olfactory GPCRs [4]; [5]) | GPCRome agonism screen response (320 non-olfactory GPCRs [1]; replicate values, Fig_4g) | GPCRome agonism screen response (320 non-olfactory GPCRs [2]; replicate values, Fig_4g) | GPCRome agonism screen response (320 non-olfactory GPCRs [3]; replicate values, Fig_4g) | GPCRome agonism screen response (320 non-olfactory GPCRs [4]; replicate values, Fig_4g)
CCOc1ccccc1CCC(C)NCC1(O)CCCCC1.Cl (racemic) [Fig_5f] | 1.144 and 1.4451 and 1.369 and 1.654 | 1.29 and 1.225 and 0.9839 and 1.172 | 1.0253 and 1.396 and 1.2735 and 0.8423 | 1.526 and 1.245 and 1.665 and 0.7058 | – | – | – | –
CCOc1cccc2cc(C(C)NCC3(O)CCCCC3)oc12 (centres unmarked) [O4LE6] | – | – | – | – | 1.083 and 1.815 and 1.566 and 2.161 | 1.178 and 0.9848 and 1.177 and 1.1855 | 0.8369 and 1.036 and 0.7156 and 1.104 | 1.294 and 0.8675 and 1.5976 and 1.234
